Read-outs that look alike come from different tables or passages of the source.
Legend:
CYP2C19 = CYP2C19 (Homo sapiens, UniProt P33261); assay: in vitro; parameters: cytochrome P450 isoform inhibition liability assay
Description: (§1) Independent of the effect of any antiparasitic potential of compounds, they were evaluated using a panel of early-toxicity assays comprising cytotoxicity (A549, human lung adenocarcinoma epithelial cell line and WI-38, human lung fibroblasts), mitochondrial toxicity (786-O, human renal carcinoma cell line), hERG inhibition,[31] cytochrome P450 inhibition (CYP1A2, CYP2C9, CYP2C19, CYP2D6, and CYP3A4),[31] and Aurora B kinase inhibition. […] For the two compounds active against TbPTR1 (4m and 4o), IC50 against hERG, cytochrome P450, and mitochondrial toxicity were determined (reported in Supporting Information). We observed that the dose of compounds 4m, 4o, 4c, and 3k was 4 μM in the potentiation assays. […] In the case of hERG, CYP2D6, CYP2A9, CYP2C19, and mitochondrial toxicity, there is a selectivity index of around 3–4 fold, thus showing an acceptable profile.  Figure 10 Summary heat map of the in vitro assays to determine possible liability issues for all synthesized compounds. Assays were performed to assess inhibition of hERG and five CYP isoforms (1A2, 2C9, 2C19, 2D6, and 3A4), growth inhibition of A549 and W1-38 cell lines, and mitochondrial toxicity at 10 μM. The hDHFR inhibition was determined at 100 μM. The data, expressed as percentage values, were organized by adopting a color code for rapid and intuitive visualization. The ideal compound should have all tiles blue, indicating a safe toxicological profile for progressing into the development pipeline. The cells are colored from blue (100% of cell growth at the tested concentration) to red (0% of cell growth at the tested concentration) for A549 and W1-38 and from blue (0% of inhibitory activity at the tested concentration) to red (100% of inhibitory activity at the tested concentration) for CYP isoforms, hERG, hDHFR, and mitochondrial toxicity.

CYP3A4 = CYP3A4 (Homo sapiens, UniProt P08684); assay: in vitro; parameters: cytochrome P450 isoform inhibition liability assay
Description: as §1

CYP1A2 = target: T1, CYP1A2 (Homo sapiens, UniProt P05177); assay: in vitro; parameters: cytochrome P450 isoform inhibition liability assay
T1 sequence (P05177 1-516): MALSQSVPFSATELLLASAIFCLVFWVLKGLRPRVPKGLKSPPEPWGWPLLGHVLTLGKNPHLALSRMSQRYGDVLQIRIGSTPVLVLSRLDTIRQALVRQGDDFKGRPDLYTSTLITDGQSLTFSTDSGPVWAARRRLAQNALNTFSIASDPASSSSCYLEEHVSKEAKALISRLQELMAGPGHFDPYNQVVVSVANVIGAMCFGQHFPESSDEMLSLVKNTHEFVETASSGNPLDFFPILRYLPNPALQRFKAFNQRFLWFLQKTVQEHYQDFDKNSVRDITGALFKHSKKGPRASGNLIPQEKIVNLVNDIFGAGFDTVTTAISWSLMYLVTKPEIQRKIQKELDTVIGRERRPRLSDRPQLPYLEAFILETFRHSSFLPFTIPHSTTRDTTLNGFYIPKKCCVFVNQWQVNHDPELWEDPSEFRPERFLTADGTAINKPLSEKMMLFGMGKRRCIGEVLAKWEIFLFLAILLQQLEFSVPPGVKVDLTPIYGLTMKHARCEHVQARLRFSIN
Description: as §1

CYP2D6 = CYP2D6 (Homo sapiens, UniProt P10635); assay: in vitro; parameters: cytochrome P450 isoform inhibition liability assay
Description: as §1

CYP2C9 = CYP2C9 (Homo sapiens, UniProt P11712); assay: in vitro; parameters: cytochrome P450 isoform inhibition liability assay
Description: as §1

hERG = target: T2, hERG (Homo sapiens, UniProt Q12809); parameters: hERG inhibition liability assay
T2 construct: gene KCNH2
Description: as §1

in vitro [1] = assay: in vitro; parameters: cytotoxicity, per cent cell growth of WI-38 fibroblasts; details: human, wi-38 cells; read-out: % cell growth W1-38 at 10uM
Description: as §1

786-O = assay: cells; parameters: mitochondrial toxicity in 786-O renal carcinoma cells; details: Homo sapiens, 786-0; mitochondrial toxicity
Description: as §1

[2] = system: T. b. brucei Lister 427 bloodstream forms; assay: In vitro activity against T. brucei (HTS SYBR Green I growth inhibition assay); assay type: cell-based, Trypanosoma brucei brucei; details: Trypanosoma brucei; for inhibition at 50 µM: read-out: % Inhibition T. brucei at 50 μM
in vitro [3] = assay: in vitro; parameters: cytotoxicity, per cent cell growth of A549 cells; details: human, a549 cells; read-out: % cell growth A549 at 10uM
Description: as §1

TbPTR1 = target: T3, TbPTR1 (Trypanosoma brucei brucei, UniProt O76290); assay: biochemical; details: for inhibition at 50 µM: read-out: % Inhibition TbPTR1 at 50 μM; for IC50: dose-response 0.001-100 μM
T3 construct: made in house
T3 sequence (O76290 1-268): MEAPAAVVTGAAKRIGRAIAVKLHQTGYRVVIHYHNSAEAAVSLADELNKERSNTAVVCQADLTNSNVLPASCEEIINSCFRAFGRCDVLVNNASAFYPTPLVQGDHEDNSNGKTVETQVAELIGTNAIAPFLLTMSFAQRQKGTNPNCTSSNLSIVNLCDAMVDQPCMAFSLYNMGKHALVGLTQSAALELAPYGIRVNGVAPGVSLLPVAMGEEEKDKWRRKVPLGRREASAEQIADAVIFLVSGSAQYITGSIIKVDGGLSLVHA

hDHFR = target: T4, hDHFR (Homo sapiens, UniProt P00374); assay: biochemical; parameters: human DHFR enzyme inhibition
T4 construct: gene DHFR
T4 sequence (P00374 1-187): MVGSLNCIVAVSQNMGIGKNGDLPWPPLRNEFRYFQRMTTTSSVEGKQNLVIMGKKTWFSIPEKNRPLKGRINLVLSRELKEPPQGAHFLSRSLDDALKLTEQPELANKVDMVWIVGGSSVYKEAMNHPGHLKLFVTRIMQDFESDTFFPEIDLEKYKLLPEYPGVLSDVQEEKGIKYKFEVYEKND
Description: Figure 10 Summary heat map of the in vitro assays to determine possible liability issues for all synthesized compounds. Assays were performed to assess inhibition of hERG and five CYP isoforms (1A2, 2C9, 2C19, 2D6, and 3A4), growth inhibition of A549 and W1-38 cell lines, and mitochondrial toxicity at 10 μM. The hDHFR inhibition was determined at 100 μM. The data, expressed as percentage values, were organized by adopting a color code for rapid and intuitive visualization. The ideal compound should have all tiles blue, indicating a safe toxicological profile for progressing into the development pipeline. The cells are colored from blue (100% of cell growth at the tested concentration) to red (0% of cell growth at the tested concentration) for A549 and W1-38 and from blue (0% of inhibitory activity at the tested concentration) to red (100% of inhibitory activity at the tested concentration) for CYP isoforms, hERG, hDHFR, and mitochondrial toxicity.

[4] = 50 μM, standard deviation within ±10% of the value

CYP2C9, sequence (P11712 whole entry, canonical isoform): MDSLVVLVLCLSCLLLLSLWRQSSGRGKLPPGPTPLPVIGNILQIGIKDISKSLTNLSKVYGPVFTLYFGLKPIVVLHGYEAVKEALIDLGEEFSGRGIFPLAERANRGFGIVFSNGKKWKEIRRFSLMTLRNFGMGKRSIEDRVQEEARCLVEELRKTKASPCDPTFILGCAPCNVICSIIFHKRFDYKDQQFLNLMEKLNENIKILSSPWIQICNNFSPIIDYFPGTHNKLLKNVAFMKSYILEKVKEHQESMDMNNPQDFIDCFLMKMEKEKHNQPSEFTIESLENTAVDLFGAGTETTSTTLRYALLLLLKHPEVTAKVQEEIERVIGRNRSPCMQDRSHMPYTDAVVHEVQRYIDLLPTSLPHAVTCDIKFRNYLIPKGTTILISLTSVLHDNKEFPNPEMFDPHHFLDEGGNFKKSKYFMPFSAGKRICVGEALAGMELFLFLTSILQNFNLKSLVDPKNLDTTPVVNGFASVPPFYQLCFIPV
CYP3A4, sequence (P08684 whole entry, canonical isoform): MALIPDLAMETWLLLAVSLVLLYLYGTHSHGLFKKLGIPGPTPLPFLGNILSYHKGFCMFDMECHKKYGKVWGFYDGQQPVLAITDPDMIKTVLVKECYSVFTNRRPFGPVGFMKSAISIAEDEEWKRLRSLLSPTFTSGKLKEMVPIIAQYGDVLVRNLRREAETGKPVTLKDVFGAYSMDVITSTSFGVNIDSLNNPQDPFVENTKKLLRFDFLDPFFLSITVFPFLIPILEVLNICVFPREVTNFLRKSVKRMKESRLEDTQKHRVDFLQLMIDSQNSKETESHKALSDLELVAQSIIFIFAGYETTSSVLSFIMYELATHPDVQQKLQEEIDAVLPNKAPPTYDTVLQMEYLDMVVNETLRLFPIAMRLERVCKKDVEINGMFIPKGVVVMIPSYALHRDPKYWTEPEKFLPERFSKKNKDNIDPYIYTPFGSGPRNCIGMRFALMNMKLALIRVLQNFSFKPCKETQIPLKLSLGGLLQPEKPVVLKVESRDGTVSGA
T2 sequence (Q12809 whole entry): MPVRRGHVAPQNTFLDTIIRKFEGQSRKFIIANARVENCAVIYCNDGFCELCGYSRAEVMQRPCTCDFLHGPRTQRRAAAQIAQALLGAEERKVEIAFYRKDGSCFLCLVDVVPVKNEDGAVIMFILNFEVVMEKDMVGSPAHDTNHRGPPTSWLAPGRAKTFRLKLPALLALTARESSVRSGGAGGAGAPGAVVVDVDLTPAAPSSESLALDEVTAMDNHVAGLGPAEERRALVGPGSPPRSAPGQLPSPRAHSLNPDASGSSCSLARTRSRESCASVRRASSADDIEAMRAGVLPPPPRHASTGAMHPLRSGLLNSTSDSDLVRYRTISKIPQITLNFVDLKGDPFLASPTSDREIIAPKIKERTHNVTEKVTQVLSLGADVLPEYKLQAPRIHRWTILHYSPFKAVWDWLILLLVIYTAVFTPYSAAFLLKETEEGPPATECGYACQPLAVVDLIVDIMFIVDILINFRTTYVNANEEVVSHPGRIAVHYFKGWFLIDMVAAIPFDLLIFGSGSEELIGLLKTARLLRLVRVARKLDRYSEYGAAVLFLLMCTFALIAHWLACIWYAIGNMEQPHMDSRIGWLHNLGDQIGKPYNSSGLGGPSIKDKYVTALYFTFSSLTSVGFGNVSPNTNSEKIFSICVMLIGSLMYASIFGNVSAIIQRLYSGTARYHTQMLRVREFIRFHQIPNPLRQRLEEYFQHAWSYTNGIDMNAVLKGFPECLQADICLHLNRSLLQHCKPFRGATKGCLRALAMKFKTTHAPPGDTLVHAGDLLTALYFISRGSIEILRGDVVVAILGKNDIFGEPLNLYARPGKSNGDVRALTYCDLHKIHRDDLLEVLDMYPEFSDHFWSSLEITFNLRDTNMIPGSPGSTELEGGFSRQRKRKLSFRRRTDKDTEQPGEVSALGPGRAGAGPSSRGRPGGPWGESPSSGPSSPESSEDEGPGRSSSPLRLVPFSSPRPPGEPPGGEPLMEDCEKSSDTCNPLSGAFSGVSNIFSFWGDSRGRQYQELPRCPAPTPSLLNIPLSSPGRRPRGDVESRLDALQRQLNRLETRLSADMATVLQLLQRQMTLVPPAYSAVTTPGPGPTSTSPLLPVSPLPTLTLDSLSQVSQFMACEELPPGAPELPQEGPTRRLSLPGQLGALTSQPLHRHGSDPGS
CYP2C19, sequence (P33261 whole entry, canonical isoform): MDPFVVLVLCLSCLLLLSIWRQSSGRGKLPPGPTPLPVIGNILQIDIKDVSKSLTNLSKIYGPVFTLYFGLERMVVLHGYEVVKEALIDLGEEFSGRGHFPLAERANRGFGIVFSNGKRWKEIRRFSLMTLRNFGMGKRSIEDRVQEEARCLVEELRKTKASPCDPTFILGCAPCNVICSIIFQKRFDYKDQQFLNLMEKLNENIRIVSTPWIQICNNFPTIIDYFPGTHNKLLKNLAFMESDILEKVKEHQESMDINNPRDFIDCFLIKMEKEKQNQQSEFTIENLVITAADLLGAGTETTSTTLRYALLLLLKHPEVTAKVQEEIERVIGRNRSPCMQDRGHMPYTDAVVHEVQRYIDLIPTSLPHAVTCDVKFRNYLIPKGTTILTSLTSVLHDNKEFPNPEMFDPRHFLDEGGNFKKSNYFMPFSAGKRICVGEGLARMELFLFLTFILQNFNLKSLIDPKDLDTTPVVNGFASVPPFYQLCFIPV
CYP2D6, sequence (P10635 whole entry, canonical isoform): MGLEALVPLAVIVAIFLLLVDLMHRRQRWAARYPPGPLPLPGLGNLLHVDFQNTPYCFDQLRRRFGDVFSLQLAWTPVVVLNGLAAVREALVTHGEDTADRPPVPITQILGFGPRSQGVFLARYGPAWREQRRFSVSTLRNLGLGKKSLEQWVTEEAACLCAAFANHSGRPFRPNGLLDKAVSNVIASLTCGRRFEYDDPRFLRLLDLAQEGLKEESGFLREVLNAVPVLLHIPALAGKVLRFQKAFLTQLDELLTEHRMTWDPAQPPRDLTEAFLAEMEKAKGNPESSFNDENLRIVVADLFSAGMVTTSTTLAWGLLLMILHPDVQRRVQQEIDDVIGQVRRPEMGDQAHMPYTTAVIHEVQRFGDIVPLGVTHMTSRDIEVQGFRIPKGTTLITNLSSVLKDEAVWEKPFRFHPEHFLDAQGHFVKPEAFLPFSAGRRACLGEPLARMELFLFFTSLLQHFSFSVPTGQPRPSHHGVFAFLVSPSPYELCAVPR

Compound | inhibition at 10 µM (CYP2C19) [%] | inhibition at 10 µM (CYP3A4) [%] | inhibition at 10 µM (CYP1A2) [%] | inhibition at 10 µM (CYP2D6) [%] | inhibition at 10 µM (CYP2C9) [%] | inhibition at 10 µM (hERG) [%] | viability at 10 µM (in vitro [1]) [%] | inhibition at 10 µM (786-O) [%] | inhibition at 50 µM [2, 4] [%] | viability at 10 µM (in vitro [3]) [%] | inhibition at 50 µM (TbPTR1; 50 μM compound) [%] | inhibition at 100 µM (hDHFR) [%] | IC50 (TbPTR1) [µM] | EC50 ([2]; standard deviation within ±10% of the value, read-out: EC50 T. brucei) [µM] | inhibition at 10 µM (hDHFR) [%] | inhibition at 50 µM [2] [%] | inhibition at 50 µM (TbPTR1) [%]
Nc1nnc(-c2ccc(OCc3ccc(Cl)c(Cl)c3)cc2)s1 [1r] | 69.6 ± 5.2 | 14.9 ± 5.7 | 24.7 ± 1.4 | 48 ± 0.9 | 31.3 ± 0.4 | 40.7 ± 7.5 | 68.7 ± 17.9 | 4.7 ± 7.8 | 58.4 | 104 ± 6.6 | < 0 | 17 |  |  |  |  | 
COc1ccccc1-c1nnc(N)s1 [1h] | -20.9 ± 16.1 | -9.4 ± 8 | 21.5 ± 4.6 | -31.5 ± 9.5 | -32.3 ± 3.6 | 5.2 ± 6.6 | 129 ± 10.3 | -7.8 ± 2.6 | < 0 | 126 ± 17.3 | 24.1 ± 1 | 14 |  |  |  |  | 
Nc1nnc(Cc2ccccc2)s1 [3b] | -42.6 ± 5.5 | -23.7 ± 5.9 | -10.2 ± 1.6 | -41.7 ± 3.9 | -20.4 ± 1.8 | 11.1 ± 5.2 | 120 ± 1.7 | -7.4 ± 11.1 | < 0 | 125 ± 4.8 | 8.1 ± 0.2 | 6 |  |  |  |  | 
N#Cc1ccc(CNc2nnc(N)s2)cc1 [4h] | -2 ± 6.3 | 7.2 ± 12.7 | 17.1 ± 4.4 | 62.4 ± 2.9 | 15 ± 1.4 | 82.6 ± 11.8 | 107 ± 24.9 | -0.1 ± 9.4 | < 0 | 105 ± 2.3 | 34.6 ± 3 | 17 | 70 |  |  |  | 
Nc1nnc(N2CCC(Cc3ccccc3)CC2)s1 [4r, 5G(4GbenzylpiperidinG1Gyl)G1,3,4GthiadiazolG2Gamine] | 89.4 ± 2 | 21.7 ± 4.3 | 20 ± 1.2 | 82.7 ± 0.6 | 45.9 ± 3.3 | 46.5 ± 4.7 | 92.7 ± 15.7 | -7.3 ± 10.5 | 1.8 | 111 ± 6.5 | 8.4 ± 0.3 | 13 |  |  |  |  | 
C[C@@H](c1cccc(C(=O)c2ccccc2)c1)c1nnc(N)s1 [3f] | 39.3 ± 3.2 | 94.5 ± 0.8 | -14.2 ± 7.1 | -12.7 ± 6.2 |  | 16 ± 6.3 | 127 ± 21.4 | -3.4 ± 2.1 | 88 | 134 ± 3.3 | 47.2 ± 0.4 | 51 |  | 20 |  |  | 
Nc1nnc(NCc2ccc(C(F)(F)F)cc2)s1 [4f] | 11.9 ± 6.6 | 7.8 ± 9.8 | 24.6 ± 2.5 | 72.4 ± 3.8 | 19.5 ± 1.3 | 69.9 ± 2.3 | 80.9 ± 23.6 | 9.6 ± 12.5 | < 0 | 113 ± 4.8 | 37.7 ± 0.5 | 19 | 48 |  |  |  | 
Nc1nnc(NCc2ccc(Cl)c(Cl)c2)s1 [4e] | 36.8 ± 0.9 | 27.4 ± 6.8 | 29.1 ± 3.4 | 99 ± 0.6 | 17.6 ± 0.9 | 75.6 ± 4.4 | 68.5 ± 18.8 | 3.6 ± 8.5 | < 0 | 106 ± 2.7 | 48.5 ± 2.1 | 24 | 31 |  |  |  | 
COc1cccc(OC)c1-c1nnc(N)s1 [1g] | -30.6 ± 12.9 | 13 ± 6.4 | 8.9 ± 0.3 | -30.5 ± 5.6 | -5.6 ± 1.3 | 4.3 ± 2 | 80.3 ± 6.8 | -3.9 ± 2 | 4.2 | 149.9 ± 0.3 | 14.1 ± 1.2 | 12 |  |  |  |  | 
Nc1nnc(-c2ccc(-c3nnc(N)s3)c(N)c2)s1 [1o] | -28.3 ± 16 | -0.7 ± 4.4 | 9.5 ± 4.2 | -38 ± 5.7 | -4.2 ± 4.2 | -1.9 ± 4.9 | 103 ± 1.8 | -6.1 ± 4.3 | 1.6 | 118 ± 9.4 | 23.4 ± 0.1 |  |  |  | 12 |  | 
COc1ccc(-c2ccc(-c3nnc(N)s3)nc2)cc1 [1t] | 17 ± 5.7 | 8.5 ± 3.3 | 76.4 ± 1.2 | 8.9 ± 2.4 | 19.7 ± 8.9 | 59.5 ± 42.9 | 107 ± 10.4 | 6.7 ± 17.3 | 28.9 | 60.7 ± 5.9 | 8.3 ± 1.8 |  |  |  | 8 |  | 
CN(C)CCc1nnc(N)s1 [3i] | -30.1 ± 15.1 | -14.3 ± 3.1 | -3.2 ± 4.2 | -35.4 ± 5 | -13.5 ± 3.9 | 0.7 ± 2.8 | 114 ± 22.2 | -12.4 ± 3.4 |  | 143 ± 11.8 |  | 12 |  |  |  | < 0 | 5.6 ± 0.6

— publication PMC5623949, “Exploiting the 2-Amino-1,3,4-thiadiazole Scaffold To Inhibit Trypanosoma brucei Pteridine Reductase in Support of Early-Stage Drug Discovery” (ACS Omega, 2017)
